These results are taken from patent US20240408081A1, “NOVEL SYNERGISTIC COMBINATIONS AND METHODS OF USE THEREOF FOR TREATING CANCERS” (UNIVERSITE DE BORDEAUX, priority 2021, published 2024).

In series [1] the test system is xenopus embryos. Nature of the series: Toxicological assay in Xenopus embryos. Format: in vivo. The following applies: treated from gastrula stage.
Description: Embryos were left in solution until untreated control embryos reached stage 41.
Series [2] concerns SU-DIPG-IVi-Luc cells implanted in the brainstem. The series can be described thus: Orthotopic SU-DIPG-IVi-Luc brainstem glioma model in NSG mice. Format: in vivo, NOD/LtSz-scid IL2R gamma (NSG) mice.
Protocol: For the mouse model, the immortalized SU-DIPG-IV line was used. SU-DIPG-IVi was transduced by a luciferase vector (Luc) with a MOI of 10. Two days after birth, 10^5 SU-DIPG-IVi-Luc cells in 2 μl were injected directly into the brainstem through the neck to a depth of 3 mm using a 2 μl NeuroSyringe (Hamilton Neuros, Dutscher, Bruxelles, Belgium) under anesthesia with 2% isoflurane and 50% oxygen enrichment. […] Tumor growth was evaluated non-invasively with anesthetized mice on a Biospace imager (Biospace Lab, Nesles la Vallée, France) 1-2 days after each treatment.
Prior to treatments, mice were micro-tattooed (Aramis kit, BiosebLab, France). Animals were weighed and then receive an i.p. injection in the lower right quadrant following IACUC recommendations. A 1 ml tuberculin syringe and a 26-gauge needle were used with an injection volume of 200 μl for a 30 g mouse (3 mg/ml), adjusted to actual weight each week. Treatment was done 3 times a week, starting at day 8. Tumor growth was evaluated non-invasively on a Biospace imager (Biospace Lab, Nesles la Vallée, France). The entire procedure was carried out on a heating mat at 37° C. The animals were shaved and anesthetized in sterile condition (under PSM-2) in boxes dedicated to imaging. […]
Series [3] deals with H3K27me3, HMGCR. Nature of the series: Western blots of H3K27me3 and HMGCR in hepatoblastoma cells. In kind it is cell-based, human. The following applies: Huh6 and HepG2. The procedure:
Cells were lysed and total proteins were extracted 48 hours after treatment or 72 hours after genetic manipulation using a mixture of RIPA buffer (Sigma), protease inhibitors and phosphatase inhibitor cocktail (Roche). After protein quantification with BCA Protein Assays (ThermoFisher), 40 μg of total proteins were loaded in 4-15% pre-casted gels (Bio-Rad) for migration. Then, proteins were transferred onto a nitrocellulose membrane (Transblot® Turbo midi-size, Bio Rad). The membranes were blocked with 5% BSA or Odyssey blocking buffer (LI-COR Biosciences) and detected with the corresponding antibodies (Table 2). The revelation was performed by chemiluminescence using Fusion FX (Vilber Lourmat) and quantification was done using ImageJ software (National Institutes of Health, Bethesda, Maryland, USA).
On the technique in general: Immunoblotting shows a protein as a band on a membrane.

For series [4], the system named is NEM157i, SU-DIPG-IVi and NEM163i DMG cells. The series can be described thus: Proliferation / cell viability assay (Sulforhodamine B) in DMG cell lines. Format: cell-based, human. How it is done: Cell growth was measured with the In vitro Toxicology Assay kit (Sulforhodamine B, Sigma Aldrich, Saint Quentin Fallavier, France) according to manufacturer's instructions. Cells were plated at a density of 2000 cells per well in 96-well plates in triplicates. Absorbance was measured at 565 nm using the CLARIOstar multiplate reader (BMG Labtech, Champigny-sur-Marne, France) at indicated time points.

Series [5] has as its system H3K27me3 trimethylation. The series can be described thus: Western blot of H3K27me3 in DMG cells. In kind it is cell-based, human. The procedure: Histone extraction was performed according to manufacturer's instructions (Histone Extraction Kit-ab113476, Abcam, Paris, France).
Cell lysates were prepared by scraping cells using RIPA buffer (Sigma Aldrich) plus proteinase inhibitors (Sigma Aldrich) and centrifuged at 13000 g for 15 min at 4° C. Protein concentrations were measured using Pierce™ BCATM Protein Assays (ThermoFisher) and equal amounts of cell extracts were loaded for western blot analysis in 4-15% precasted polyacrylamide gel (Bio-Rad). Proteins were blotted on a nitrocellulose membrane (Transblot® Turbo midi-size, Bio Rad), blocked with the Odyssey blocking buffer (LI-COR Biosciences, ScienceTec, Les Ulis, France) or with BSA diluted in Tris-buffered saline with 0.1% Tween 20 (TBST) and probed with primary antibodies overnight at 4° C. […] Quantification was performed using ImageJ (National Institutes of Health, Bethesda, Maryland, USA).

In series [6] the test system is Huh6 cells. The series can be described thus: Cell viability assay (CellTiter 96 AQueous One / MTS) in Huh6. In kind it is cell-based, human. How it is done: (§1) For 2D culture, a total of 2,000 cells/well for Huh6 and 3,000 cells/well for HepG2 were seeded in 96-well microtiter plates. Cell growth was measured at 24 h, 48h, 72h or 96h after genetic manipulation and at 48h or 72h after drug treatment using the in vitro MTS assay Kit or Sulforhodamine B (SRB, Absorbance at 565 nm) assay (Sigma) following manufacturer's instructions. For 3D culture, spheroids were formed as described above and microplates were incubated in an IncuCyte® S3 live cell analysis system and scanned every 8 hours. For genetic manipulation, the lentiviral transductions or the gene depletions were done before the plating. For drug treatments, depending on the experiment and the drug, spheroids were treated at day 4 or 5 for 48h or 72h. Cell viability assay in spheroids was done using 1 μM calcein AM (BioLegend) and 2 μM ethidium homodimer 1 (Sigma) for 30 minutes at 37° C. Spheroids were imaged using an IncuCyte® S3 live cell analysis system. For all cell viability assays, drugs were used at half maximal inhibitory concentration (IC50).

Series [7] has as its system Huh6 and HepG2 hepatoblastoma cells. Nature of the series: Growth and viability of hepatoblastoma cells (Huh6 and HepG2), 2D and 3D spheroid. Format: cell-based, human. The procedure: as §1
Series [8] has as its system Huh6 cells. Nature of the series: Huh6 tumor xenografts in NSG mice. In kind it is in vivo, NOD/LtSz-scid IL2R gamma null (NSG) mice. The following applies: intraperitoneal; GSK-126 50 mg/kg, ATR 20 mg/kg 3-times a week; cisplatin 1 mg/kg twice a week. How it is done: NOD/LtSz-scid IL2R gamma null (NSG) mice were bred in standard conditions compliant with regulatory bodies (French government). Sterilized food and water were accessible ad libitum. One million of Huh6 cells in 50% of Matrigel were subcutaneously injected in a total volume of 100 μl in the right flank of 8- to 9-week-old female mice (26-32 g; APAFIS #32917-2021121316283534 v2, Agreement #B33063916, Ministère de l'Enseignement Supérieur, de la Recherche et de l'Innovation).
Tumor growth was monitored by caliper measurement until tumors reached an average volume of 250 mm3 (at day 12, see arrow). […] The vehicle (PBS with 5% DMSO) was injected 3-times a week. Tumor growth was monitored during 16 additional days until tumors control reached a size of 2000 mm3. Thus, all mice were euthanized. Blood was collected from all euthanatized mice and circulating ASAT, ALAT, creatinine, and urea were measured to evaluate the toxicity of the different treatments on the liver and kidneys.

Series [9] deals with patients with relapsed/refractory solid tumors and hematologic malignancies. The following applies: cited from earlier work.

On to `CC[C@H](C)n1cc(C)c2c(C(=O)NCc3c(C)cc(C)[nH]c3=O)cc(-c3ccc(N4CCNCC4)nc3)cc21` [GSK-126, 1-[(2S)-butan-2-yl]-N-[(4,6-dimethyl-2-oxo-1H-pyridin-3-yl)methyl]-3-methyl-6-[6-(1-piperazinyl)-3-pyridinyl]-4-indolecarboxamide], for which, in series [1], the “toxic dose in xenopus embryos” value was found to be 1 mM. Besides, the “tumor growth (bioluminescence)” value is listed as “No significant differences” in series [2] (GSK-126 6 mg/kg, Atorvastatin 10 mg/kg, after four treatments) and “significant growth reduction” in series [2] (i.p. dose of 10 mg/kg, 3-times a week). Further, the “trimethylation of histone H3 Lysine 27” value in [3] (GSK-126 at IC50) was “reduced”. Further, the “expression of HMGCR” value in [3] is given as “triggered”. The “effect of low dose on DMG cell growth” value in series [4] (4 μM) is recorded as “does not affect”. The IC50 is 7.6 to 10.3 µM in [4] (Homo sapiens, three DMG cell lines, 72 h of treatment, read-out: IC50 (half maximal inhibitory concentration)); 6 µM in [6] (Homo sapiens, HuH-6); 6 to 8 µM in series [7] (Homo sapiens, hepatoblastoma cells, 48 h). For the same compound, the “doses with significant growth inhibition” value in [4] (NEM157i and SU-DIPG-IVi) is reported as “above 6 μM”. The “doses with total growth inhibition” value in series [4] (NEM157i and SU-DIPG-IVi) is “above 25 μM”. For the same compound, the H3K27me3 trimethylation result in [5] (BXdmg1 cells, histone-purified protein extracts) is “reduced H3K27me3 trimethylation in a dose-dependent manner”; in series [5] (NEM157i and SU-DIPG-IVi DMG cells) it was “efficiently inhibited”. Also, the IC25 dose in series [6] worked out at 3 µM. Also, the “sensitivity of Huh6 and HepG2 cells in presence of Simvastatin or Atorvastatin” value in series [7] (72 h, 4 μM Simvastatin or 8 μM Atorvastatin) is “significantly increased (at least twice)”. Moreover, the “development of hepatoblastoma in mice (tumor volume)” value in [8] was “no effect”. The clinical activity entry in [9] (at the MTD) is “inadequate clinical activity”. Besides, the half-life result in [9] (human, in vivo) was “relatively short”. In addition, the “maximum tolerated dose (MTD)” value in series [9] (twice weekly intravenous, 28 days (3 weeks on/1 week off)) is 2,400 mg.
